From publication PMC10004634 (PLOS ONE, 2023)
Read-outs that look alike come from different tables or passages of the source.

Legend:
Test in all cases: biochemical
Parameters in all cases: KINOMEscan scanMAX competition binding, DNA-tagged kinases, qPCR read-out, percent control at 300 nM
PKN1 = PKN1 (Homo sapiens, UniProt Q16512)
KIT(D816V) = KIT(D816V) (Homo sapiens, UniProt P10721, D816V)
EPHA4 = EPHA4 (Homo sapiens, UniProt P54764)
PRKCD = PRKCD (Homo sapiens, UniProt Q05655)
MARK4 = biological target: T1, MARK4 (Homo sapiens, UniProt Q96L34)
T1 sequence (Q96L34 1-752): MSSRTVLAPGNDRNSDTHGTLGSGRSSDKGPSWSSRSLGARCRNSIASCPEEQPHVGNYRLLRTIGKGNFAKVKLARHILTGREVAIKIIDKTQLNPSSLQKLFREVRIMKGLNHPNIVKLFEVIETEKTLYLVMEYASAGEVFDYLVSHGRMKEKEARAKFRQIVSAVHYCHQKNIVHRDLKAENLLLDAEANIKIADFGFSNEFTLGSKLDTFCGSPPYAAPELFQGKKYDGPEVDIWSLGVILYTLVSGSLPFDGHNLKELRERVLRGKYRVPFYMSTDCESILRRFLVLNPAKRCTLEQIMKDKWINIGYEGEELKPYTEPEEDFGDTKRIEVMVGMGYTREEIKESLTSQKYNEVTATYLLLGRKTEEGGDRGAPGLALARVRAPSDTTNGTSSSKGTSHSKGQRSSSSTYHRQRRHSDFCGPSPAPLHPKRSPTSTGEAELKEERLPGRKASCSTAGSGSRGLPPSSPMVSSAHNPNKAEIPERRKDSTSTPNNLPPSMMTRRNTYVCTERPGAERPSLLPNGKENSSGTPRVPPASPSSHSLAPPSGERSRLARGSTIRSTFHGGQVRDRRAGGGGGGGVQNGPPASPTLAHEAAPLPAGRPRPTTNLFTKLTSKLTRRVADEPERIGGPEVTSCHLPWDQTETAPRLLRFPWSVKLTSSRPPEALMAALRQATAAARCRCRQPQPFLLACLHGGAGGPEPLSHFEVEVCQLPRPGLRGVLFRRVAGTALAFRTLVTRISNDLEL

ROS1 = ROS1 (Homo sapiens, UniProt P08922)
Chain of ROS1 (P08922 whole entry): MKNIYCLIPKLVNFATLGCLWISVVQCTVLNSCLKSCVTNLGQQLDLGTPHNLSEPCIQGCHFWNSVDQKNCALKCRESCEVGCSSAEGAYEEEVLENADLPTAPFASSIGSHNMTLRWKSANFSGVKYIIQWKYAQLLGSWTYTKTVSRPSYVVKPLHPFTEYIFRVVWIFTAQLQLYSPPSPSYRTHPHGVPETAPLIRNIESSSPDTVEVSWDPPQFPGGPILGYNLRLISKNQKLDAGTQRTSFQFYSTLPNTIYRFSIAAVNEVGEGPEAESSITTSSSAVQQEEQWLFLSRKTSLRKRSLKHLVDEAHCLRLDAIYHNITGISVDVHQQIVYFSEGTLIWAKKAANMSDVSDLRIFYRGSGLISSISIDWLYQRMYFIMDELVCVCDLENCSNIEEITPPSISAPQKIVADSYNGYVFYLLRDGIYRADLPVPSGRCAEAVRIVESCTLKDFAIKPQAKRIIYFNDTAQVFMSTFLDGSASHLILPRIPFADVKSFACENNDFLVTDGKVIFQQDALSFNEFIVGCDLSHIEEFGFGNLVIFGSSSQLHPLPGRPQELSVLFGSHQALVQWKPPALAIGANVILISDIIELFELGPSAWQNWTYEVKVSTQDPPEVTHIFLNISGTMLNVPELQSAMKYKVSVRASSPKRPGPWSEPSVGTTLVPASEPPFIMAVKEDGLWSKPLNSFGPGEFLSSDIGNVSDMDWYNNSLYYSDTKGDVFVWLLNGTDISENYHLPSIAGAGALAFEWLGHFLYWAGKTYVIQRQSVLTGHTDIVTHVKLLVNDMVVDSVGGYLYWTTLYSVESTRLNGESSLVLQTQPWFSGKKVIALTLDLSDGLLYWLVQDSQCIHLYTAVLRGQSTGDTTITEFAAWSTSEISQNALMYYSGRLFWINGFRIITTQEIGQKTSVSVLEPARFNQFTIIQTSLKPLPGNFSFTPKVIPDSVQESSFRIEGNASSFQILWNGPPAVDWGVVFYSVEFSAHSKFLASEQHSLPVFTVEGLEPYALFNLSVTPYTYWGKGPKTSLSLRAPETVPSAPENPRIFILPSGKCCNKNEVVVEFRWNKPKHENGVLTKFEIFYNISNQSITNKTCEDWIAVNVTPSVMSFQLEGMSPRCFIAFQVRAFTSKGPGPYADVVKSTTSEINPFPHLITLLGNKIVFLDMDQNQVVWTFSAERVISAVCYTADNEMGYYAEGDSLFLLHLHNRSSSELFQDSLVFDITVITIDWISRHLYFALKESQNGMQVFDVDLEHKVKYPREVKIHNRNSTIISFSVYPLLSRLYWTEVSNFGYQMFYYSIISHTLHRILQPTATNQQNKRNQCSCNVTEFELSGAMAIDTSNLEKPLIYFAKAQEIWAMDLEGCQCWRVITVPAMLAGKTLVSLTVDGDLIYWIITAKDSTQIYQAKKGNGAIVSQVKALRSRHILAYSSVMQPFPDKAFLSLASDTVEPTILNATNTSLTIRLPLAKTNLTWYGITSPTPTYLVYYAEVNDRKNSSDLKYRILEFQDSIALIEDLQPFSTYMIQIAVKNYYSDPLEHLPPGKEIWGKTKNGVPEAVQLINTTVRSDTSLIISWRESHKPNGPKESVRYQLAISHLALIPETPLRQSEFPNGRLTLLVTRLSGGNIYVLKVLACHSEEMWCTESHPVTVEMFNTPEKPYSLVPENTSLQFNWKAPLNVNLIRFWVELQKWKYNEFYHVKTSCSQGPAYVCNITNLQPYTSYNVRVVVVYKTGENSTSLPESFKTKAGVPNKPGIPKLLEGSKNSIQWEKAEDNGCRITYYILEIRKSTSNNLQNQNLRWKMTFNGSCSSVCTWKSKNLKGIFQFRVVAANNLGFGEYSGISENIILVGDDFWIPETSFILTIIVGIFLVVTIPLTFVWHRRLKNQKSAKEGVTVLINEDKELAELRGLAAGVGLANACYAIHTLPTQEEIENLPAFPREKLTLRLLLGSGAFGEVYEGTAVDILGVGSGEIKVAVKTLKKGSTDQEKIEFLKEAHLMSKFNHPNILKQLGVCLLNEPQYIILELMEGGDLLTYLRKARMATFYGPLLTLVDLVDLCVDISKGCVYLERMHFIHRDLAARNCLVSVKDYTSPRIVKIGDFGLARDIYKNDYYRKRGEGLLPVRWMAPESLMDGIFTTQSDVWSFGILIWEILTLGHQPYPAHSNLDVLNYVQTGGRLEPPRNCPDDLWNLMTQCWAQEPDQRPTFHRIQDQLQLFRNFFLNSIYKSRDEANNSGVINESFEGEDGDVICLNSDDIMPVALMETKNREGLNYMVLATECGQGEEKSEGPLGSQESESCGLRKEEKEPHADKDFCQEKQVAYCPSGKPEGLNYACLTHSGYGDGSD

CAMK4 = CAMK4 (Homo sapiens, UniProt Q16566)
PIP5K2C = biological target: T2, PIP5K2C (Homo sapiens, UniProt Q8TBX8)
T2 construct: gene PIP4K2C
T2 sequence (Q8TBX8 1-421): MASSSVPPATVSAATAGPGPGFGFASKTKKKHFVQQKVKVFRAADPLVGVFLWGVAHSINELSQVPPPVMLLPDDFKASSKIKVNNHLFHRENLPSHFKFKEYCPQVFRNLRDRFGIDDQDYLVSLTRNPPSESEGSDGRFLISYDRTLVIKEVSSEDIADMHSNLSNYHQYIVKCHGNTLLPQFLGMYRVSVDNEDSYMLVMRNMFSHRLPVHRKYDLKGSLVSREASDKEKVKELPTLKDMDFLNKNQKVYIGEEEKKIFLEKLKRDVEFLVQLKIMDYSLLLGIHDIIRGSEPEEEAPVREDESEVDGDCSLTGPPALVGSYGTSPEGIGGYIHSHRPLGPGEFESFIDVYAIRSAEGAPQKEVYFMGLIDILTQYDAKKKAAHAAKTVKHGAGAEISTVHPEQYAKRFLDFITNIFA

BRAF(V600E) = BRAF(V600E) (Homo sapiens, UniProt P15056, V600E)
BRSK2 = biological target: T3, BRSK2 (Homo sapiens, UniProt Q8IWQ3)
T3 sequence (Q8IWQ3 1-736): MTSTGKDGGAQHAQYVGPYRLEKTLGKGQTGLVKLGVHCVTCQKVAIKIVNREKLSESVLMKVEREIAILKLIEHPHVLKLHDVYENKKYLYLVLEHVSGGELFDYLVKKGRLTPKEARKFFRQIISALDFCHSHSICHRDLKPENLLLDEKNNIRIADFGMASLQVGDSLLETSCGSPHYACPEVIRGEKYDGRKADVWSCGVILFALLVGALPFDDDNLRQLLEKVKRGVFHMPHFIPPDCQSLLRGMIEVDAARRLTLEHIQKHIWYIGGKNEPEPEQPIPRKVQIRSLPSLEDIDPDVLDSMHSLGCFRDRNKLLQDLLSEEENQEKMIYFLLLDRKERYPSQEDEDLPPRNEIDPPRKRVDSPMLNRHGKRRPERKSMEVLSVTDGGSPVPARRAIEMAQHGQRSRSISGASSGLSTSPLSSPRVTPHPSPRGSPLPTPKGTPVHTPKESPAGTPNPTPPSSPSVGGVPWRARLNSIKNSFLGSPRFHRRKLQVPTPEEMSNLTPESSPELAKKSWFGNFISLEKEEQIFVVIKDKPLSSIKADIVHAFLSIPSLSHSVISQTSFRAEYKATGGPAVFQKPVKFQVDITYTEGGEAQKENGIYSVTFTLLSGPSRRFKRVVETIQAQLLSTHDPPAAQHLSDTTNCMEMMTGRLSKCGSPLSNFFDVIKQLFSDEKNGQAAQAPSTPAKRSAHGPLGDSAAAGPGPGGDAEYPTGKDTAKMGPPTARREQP

[1] = read-out: Percent control / Tirabrutinib
[2] = read-out: Percent control / Ibrutinib
[3] = read-out: Percent control / Zanubrutinib
[4] = read-out: Percent control / Acalabrutinib

Chain of PKN1 (Q16512 whole entry): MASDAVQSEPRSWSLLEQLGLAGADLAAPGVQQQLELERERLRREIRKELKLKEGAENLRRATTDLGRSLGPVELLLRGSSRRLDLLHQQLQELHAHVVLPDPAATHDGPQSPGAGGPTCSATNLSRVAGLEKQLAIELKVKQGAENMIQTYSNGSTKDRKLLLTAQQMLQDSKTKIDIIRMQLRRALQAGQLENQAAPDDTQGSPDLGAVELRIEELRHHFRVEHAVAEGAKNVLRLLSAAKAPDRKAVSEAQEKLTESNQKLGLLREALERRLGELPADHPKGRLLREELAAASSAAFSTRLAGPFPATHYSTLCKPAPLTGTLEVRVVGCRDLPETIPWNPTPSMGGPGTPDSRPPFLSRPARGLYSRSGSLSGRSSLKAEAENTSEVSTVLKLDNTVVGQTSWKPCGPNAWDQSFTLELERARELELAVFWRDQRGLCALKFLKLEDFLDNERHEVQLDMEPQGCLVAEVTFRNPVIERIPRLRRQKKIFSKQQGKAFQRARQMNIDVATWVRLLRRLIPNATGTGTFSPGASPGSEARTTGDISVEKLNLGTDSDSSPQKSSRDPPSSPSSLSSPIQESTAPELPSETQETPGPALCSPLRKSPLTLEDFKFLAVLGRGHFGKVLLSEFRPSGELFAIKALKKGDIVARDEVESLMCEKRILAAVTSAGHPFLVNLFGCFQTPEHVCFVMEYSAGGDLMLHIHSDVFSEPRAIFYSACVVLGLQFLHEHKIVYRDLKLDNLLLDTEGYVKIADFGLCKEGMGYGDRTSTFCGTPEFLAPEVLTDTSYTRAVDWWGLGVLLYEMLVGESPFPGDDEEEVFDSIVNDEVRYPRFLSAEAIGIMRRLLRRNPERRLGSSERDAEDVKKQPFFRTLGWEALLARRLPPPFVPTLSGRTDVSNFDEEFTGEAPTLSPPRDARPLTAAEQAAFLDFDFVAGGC
Chain of EPHA4 (P54764 whole entry): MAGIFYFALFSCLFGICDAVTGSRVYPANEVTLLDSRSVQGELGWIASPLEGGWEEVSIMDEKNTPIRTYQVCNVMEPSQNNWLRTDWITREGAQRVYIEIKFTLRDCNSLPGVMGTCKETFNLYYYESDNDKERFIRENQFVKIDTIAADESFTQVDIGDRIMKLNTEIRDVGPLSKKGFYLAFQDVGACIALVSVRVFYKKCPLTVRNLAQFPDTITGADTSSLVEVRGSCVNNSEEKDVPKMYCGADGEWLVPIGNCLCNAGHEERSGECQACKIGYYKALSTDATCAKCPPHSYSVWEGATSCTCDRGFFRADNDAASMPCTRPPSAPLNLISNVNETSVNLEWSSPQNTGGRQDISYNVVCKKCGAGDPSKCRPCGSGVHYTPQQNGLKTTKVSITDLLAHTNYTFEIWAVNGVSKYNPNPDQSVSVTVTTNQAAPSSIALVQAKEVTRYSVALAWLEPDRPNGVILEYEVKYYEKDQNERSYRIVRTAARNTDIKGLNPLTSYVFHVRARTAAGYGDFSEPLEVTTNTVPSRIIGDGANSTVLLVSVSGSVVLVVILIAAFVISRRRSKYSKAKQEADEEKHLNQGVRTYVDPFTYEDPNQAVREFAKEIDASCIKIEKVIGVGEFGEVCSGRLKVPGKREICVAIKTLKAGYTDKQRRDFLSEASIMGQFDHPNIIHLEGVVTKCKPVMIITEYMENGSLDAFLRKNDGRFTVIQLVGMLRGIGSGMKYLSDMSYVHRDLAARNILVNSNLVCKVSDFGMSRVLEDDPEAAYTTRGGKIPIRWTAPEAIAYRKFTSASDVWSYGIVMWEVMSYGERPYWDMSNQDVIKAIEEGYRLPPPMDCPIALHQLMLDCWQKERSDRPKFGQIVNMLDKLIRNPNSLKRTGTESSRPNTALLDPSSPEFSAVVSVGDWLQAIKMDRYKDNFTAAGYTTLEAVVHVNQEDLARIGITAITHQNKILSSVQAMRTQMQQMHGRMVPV
Chain of PRKCD (Q05655 whole entry): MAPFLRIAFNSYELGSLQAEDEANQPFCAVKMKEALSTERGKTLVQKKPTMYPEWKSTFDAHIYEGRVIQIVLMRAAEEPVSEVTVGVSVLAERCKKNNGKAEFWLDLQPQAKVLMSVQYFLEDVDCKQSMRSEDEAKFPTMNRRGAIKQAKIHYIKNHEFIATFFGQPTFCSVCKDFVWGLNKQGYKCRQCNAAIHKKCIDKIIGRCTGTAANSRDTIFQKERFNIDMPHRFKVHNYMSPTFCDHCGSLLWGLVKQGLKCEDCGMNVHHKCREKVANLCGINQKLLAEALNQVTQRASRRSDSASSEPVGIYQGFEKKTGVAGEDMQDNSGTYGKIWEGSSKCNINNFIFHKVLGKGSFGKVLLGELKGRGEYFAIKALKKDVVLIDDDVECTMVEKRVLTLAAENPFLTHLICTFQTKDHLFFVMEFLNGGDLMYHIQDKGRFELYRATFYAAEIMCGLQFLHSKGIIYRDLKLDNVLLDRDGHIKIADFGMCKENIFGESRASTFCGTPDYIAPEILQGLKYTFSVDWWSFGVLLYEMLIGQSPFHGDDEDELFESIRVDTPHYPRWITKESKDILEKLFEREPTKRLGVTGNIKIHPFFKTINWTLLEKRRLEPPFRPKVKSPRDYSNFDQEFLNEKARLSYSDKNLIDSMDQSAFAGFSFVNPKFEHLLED

Structure (SMILES): CC#CC(=O)N1CC[C@@H](n2c(=O)n(-c3ccc(Oc4ccccc4)cc3)c3c(N)ncnc32)C1 [Tirabrutinib]
- remaining binding at 0.3 µM (PKN1; [1]): 99%
- remaining binding at 0.3 µM (KIT(D816V); [1]): 93%
- remaining binding at 0.3 µM (EPHA4; [1]): 94%
- remaining binding at 0.3 µM (PRKCD; [1]): 90%
- remaining binding at 0.3 µM (MARK4; [1]): 94%
- remaining binding at 0.3 µM (ROS1; [1]): 94%
- remaining binding at 0.3 µM (CAMK4; [1]): 82%

Structure (SMILES): C=CC(=O)N1CCC[C@@H](n2nc(-c3ccc(Oc4ccccc4)cc3)c3c(N)ncnc32)C1 [Ibrutinib]
- remaining binding at 0.3 µM (EPHA4; [2]): 82%
- remaining binding at 0.3 µM (PRKCD; [2]): 90%
- remaining binding at 0.3 µM (PIP5K2C; [2]): 81%
- remaining binding at 0.3 µM (BRAF(V600E); [2]): 98%
- remaining binding at 0.3 µM (MARK4; [2]): 96%
- remaining binding at 0.3 µM (BRSK2; [2]): 82%
- remaining binding at 0.3 µM (CAMK4; [2]): 96%

Structure (SMILES): C=CC(=O)N1CCC([C@@H]2CCNc3c(C(N)=O)c(-c4ccc(Oc5ccccc5)cc4)nn32)CC1 [Zanubrutinib]
- remaining binding at 0.3 µM (PKN1; [3]): 100%
- remaining binding at 0.3 µM (KIT(D816V); [3]): 98%
- remaining binding at 0.3 µM (PRKCD; [3]): 83%
- remaining binding at 0.3 µM (PIP5K2C; [3]): 92%
- remaining binding at 0.3 µM (BRAF(V600E); [3]): 88%
- remaining binding at 0.3 µM (MARK4; [3]): 83%
- remaining binding at 0.3 µM (BRSK2; [3]): 81%
- remaining binding at 0.3 µM (ROS1; [3]): 100%
- remaining binding at 0.3 µM (CAMK4; [3]): 91%

Structure (SMILES): CC#CC(=O)N1CCC[C@H]1c1nc(-c2ccc(C(=O)Nc3ccccn3)cc2)c2c(N)nccn12 [Acalabrutinib]
- remaining binding at 0.3 µM (PKN1; [4]): 81%
- remaining binding at 0.3 µM (KIT(D816V); [4]): 92%
- remaining binding at 0.3 µM (EPHA4; [4]): 96%
- remaining binding at 0.3 µM (PIP5K2C; [4]): 90%
- remaining binding at 0.3 µM (BRAF(V600E); [4]): 70%
- remaining binding at 0.3 µM (BRSK2; [4]): 94%
- remaining binding at 0.3 µM (ROS1; [4]): 86%
